Reference: patent US9556201B2, “Bicyclic pyridines and analogs as sirtuin modulators” (GLAXOSMITHKLINE LLC, priority 2009, dated 2017)

Experiments:
TNF = TNF IC50 (column of Table 1; method not shown); assay type: cell-based
SIRT1 = target: T1, SIRT1 (Homo sapiens, UniProt Q96EB6); test: Mass spectrometry based assay to identify modulators of SIRT1 activity (deacetylation of p53-based acetylated peptide substrate); assay type: biochemical; settings: SIRT1 activation; for Emax: 25 min, read-out: % FOLD ACT. (percent maximum fold activation)
T1 sequence (Q96EB6 1-747): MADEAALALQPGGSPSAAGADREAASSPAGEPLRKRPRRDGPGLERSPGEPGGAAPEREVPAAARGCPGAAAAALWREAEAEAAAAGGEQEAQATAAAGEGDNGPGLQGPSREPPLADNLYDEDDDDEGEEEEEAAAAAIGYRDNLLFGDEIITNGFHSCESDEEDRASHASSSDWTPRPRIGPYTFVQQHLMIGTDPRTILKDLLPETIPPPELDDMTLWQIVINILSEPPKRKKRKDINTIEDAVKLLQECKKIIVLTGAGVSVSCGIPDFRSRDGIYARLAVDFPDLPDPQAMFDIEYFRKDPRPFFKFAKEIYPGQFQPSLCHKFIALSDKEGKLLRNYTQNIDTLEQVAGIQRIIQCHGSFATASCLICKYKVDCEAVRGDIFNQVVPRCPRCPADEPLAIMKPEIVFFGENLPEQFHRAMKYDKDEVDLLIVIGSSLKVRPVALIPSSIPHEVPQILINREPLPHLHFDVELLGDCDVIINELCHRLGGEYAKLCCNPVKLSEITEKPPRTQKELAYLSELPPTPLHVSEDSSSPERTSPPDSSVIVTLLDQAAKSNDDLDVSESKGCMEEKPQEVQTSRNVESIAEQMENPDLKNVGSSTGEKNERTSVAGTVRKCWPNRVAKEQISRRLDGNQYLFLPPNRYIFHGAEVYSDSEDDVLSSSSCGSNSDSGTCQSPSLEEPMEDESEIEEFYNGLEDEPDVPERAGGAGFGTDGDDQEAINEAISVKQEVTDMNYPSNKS
Summary of the method: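 His-tagged human SIRT1 (10 nM, E. coli) incubated 25 min at 25 °C with […] p53-derived acetylated 5TMR peptide and 120 μM βNAD+ in pH 8 Tris-acetate buffer, then formic acid-stopped. Mass spectrometry quantifies acetylated vs deacetylated peptide; nicotinamide and DMSO controls.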

IC50 (TNF) | Emax (SIRT1) | EC1.5 (SIRT1) | SMILES
≥ 20 µM | > 200% | A (EC1.5<1.0 μM) | Cc1cc(NC(=O)N2CCOc3ccc(-c4cccc(C(F)(F)F)c4)nc32)ccn1 [Compound 548]
≥ 20 µM | > 200% | A (EC1.5<1.0 μM) | O=C(Nc1ccncc1F)N1CCOc2ccc(-c3cccc(C(F)(F)F)c3)nc21 [Compound 549]
≥ 20 µM | > 200% | A (EC1.5<1.0 μM) | Cc1cncc(NC(=O)N2CCOc3ccc(-c4cccc(C(F)(F)F)c4)nc32)c1 [Compound 551]
< 20 µM | > 200% | A (EC1.5<1.0 μM) | Cc1cc(NC(=O)N2CCOc3ccc(-c4cccc(C(F)(F)F)c4)nc32)cc(C)n1 [Compound 556]
≥ 20 µM | > 200% | A (EC1.5<1.0 μM) | O=C(Nc1ccncc1)N1CCOc2ccc(-c3cccc(N4CCOCC4)c3)nc21 [Compound 557]
< 20 µM | > 200% | A (EC1.5<1.0 μM) | O=C(Nc1ccncc1)N1CCOc2ccc(-c3cccc(N4CCCC4)c3)nc21 [Compound 559]
≥ 20 µM | > 200% | A (EC1.5<1.0 μM) | CC1(C)CN(C(=O)Nc2ccncc2)c2nc(-c3cccc(C(F)(F)F)c3)ccc2O1 [Compound 560, 2,2-dimethyl-N-(pyridin-4-yl)-6-(3-(trifluoromethyl)phenyl)-2H-pyrido[3,2-b][1,4]oxazine-4(3H)-carboxamide]
≥ 20 µM | > 200% | A (EC1.5<1.0 μM) | O=C(Nc1ccc(F)cn1)N1CCOc2ccc(-c3cccc(C(F)(F)F)c3)nc21 [Compound 566]

Continued, molecule first:

SMILES | IC50 (TNF) | Emax (SIRT1) | EC1.5 (SIRT1)
O=C(Nc1cccc(CN2CCOCC2)n1)N1CCOc2ccc(-c3cccc(C(F)(F)F)c3)nc21 [Compound 510] | ≥ 20 µM | > 200% | A (EC1.5<1.0 μM)
Cc1cc(C)nc(NC(=O)N2CCOc3ccc(-c4cccc(C(F)(F)F)c4)nc32)c1 [Compound 511] | ≥ 20 µM | > 200% | A (EC1.5<1.0 μM)
O=C(Nc1ccnc(N2CCC2)c1)N1CCOc2ccc(-c3cccc(C(F)(F)F)c3)nc21 [Compound 513] | ≥ 20 µM | > 200% | A (EC1.5<1.0 μM)
O=C(Nc1ccnc(N2CCC2)c1)N1CCOc2ccc(-c3cccc(F)c3)nc21 [Compound 519] | < 20 µM | > 200% | A (EC1.5<1.0 μM)
CN1CCN(C(=O)Nc2ccncc2)c2nc(-c3cccc(C(F)(F)F)c3)ccc21 [Compound 531] | < 20 µM | > 200% | A (EC1.5<1.0 μM)
Cc1cc(NC(=O)N2CCN(C)c3ccc(-c4cccc(C(F)(F)F)c4)nc32)cc(C)n1 [Compound 532] | ≥ 20 µM | ≤ 200% | B (EC1.5 1-25 μM)
Cc1csc(NC(=O)N2CCN(C)c3ccc(-c4cccc(C(F)(F)F)c4)nc32)n1 [Compound 533] | ≥ 20 µM | > 200% | A (EC1.5<1.0 μM)
Cc1cc(C)nc(NC(=O)N2CCN(C)c3ccc(-c4cccc(C(F)(F)F)c4)nc32)c1 [Compound 534] | ≥ 20 µM | ≤ 200% | A (EC1.5<1.0 μM)
CN1CCN(C(=O)Nc2ccncn2)c2nc(-c3cccc(C(F)(F)F)c3)ccc21 [Compound 535] | ≥ 20 µM | > 200% | A (EC1.5<1.0 μM)
CN1CCN(C(=O)Nc2cccnn2)c2nc(-c3cccc(C(F)(F)F)c3)ccc21 [Compound 537] | ≥ 20 µM | > 200% | A (EC1.5<1.0 μM)
CN1CCN(C(=O)Nc2ccnc(N3CCC3)c2)c2nc(-c3cccc(C(F)(F)F)c3)ccc21 [Compound 538] | < 20 µM | > 200% | A (EC1.5<1.0 μM)
CN1CCN(C(=O)Nc2cccc(CN3CCOCC3)n2)c2nc(-c3cccc(C(F)(F)F)c3)ccc21 [Compound 539] | < 20 µM | > 200% | A (EC1.5<1.0 μM)
